Blank lines part the entries; values can stand above or below the molecule they belong to.
Key:
[1] = target: Tyrosine-protein kinase Lyn (Homo sapiens, UniProt P07948); experiment: Selectivity interaction (Upstate Kinase Profiler service (Millipore)) EUB0000056c LYN; details: at 1 µM
[2] = target: Serine/threonine-protein kinase Nek7 (Homo sapiens) (UniProt Q8TDX7); experiment: Selectivity interaction (KinomeScan (DiscoverX)) EUB0000655a NEK7; details: at 10 µM
[3] = target: Glycogen synthase kinase-3 alpha (Homo sapiens, UniProt P49840); experiment: Selectivity interaction (ProQinase) EUB0000171b GSK3A
[4] = target: T1, 5-hydroxytryptamine receptor 3A (Homo sapiens) (UniProt P46098); experiment: Selectivity interaction (Panel of kinases, GPCRs, ion channels and transporters (enzymatic assay)) EUB0000266bCl HTR3A
T1 sequence (whole entry): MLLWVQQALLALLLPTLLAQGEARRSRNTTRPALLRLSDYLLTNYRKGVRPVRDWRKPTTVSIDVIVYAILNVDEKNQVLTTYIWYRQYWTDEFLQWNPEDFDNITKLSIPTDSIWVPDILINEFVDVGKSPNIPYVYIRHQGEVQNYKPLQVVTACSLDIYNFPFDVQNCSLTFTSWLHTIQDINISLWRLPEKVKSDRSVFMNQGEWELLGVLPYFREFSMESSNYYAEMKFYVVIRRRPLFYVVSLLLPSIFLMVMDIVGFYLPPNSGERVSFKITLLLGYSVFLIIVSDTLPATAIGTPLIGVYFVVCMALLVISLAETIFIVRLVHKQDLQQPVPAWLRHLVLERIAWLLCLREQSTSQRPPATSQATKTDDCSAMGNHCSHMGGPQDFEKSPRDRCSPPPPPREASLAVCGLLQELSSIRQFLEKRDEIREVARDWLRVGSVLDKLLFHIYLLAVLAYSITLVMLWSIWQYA

[5] = test system: Epidermal growth factor receptor (Homo sapiens), P00533 [UNDEFINED MUTATION]; experiment: Selectivity interaction (KinomeScan (DiscoverX)) EUB0001079a EGFR; details: at 1 µM
[6] = target: T2, Ephrin type-A receptor 8 (Homo sapiens) (UniProt P29322); experiment: Selectivity interaction (KinomeScan (DiscoverX)) EUB0000666a EPHA8; details: at 10 µM
T2 sequence (whole entry): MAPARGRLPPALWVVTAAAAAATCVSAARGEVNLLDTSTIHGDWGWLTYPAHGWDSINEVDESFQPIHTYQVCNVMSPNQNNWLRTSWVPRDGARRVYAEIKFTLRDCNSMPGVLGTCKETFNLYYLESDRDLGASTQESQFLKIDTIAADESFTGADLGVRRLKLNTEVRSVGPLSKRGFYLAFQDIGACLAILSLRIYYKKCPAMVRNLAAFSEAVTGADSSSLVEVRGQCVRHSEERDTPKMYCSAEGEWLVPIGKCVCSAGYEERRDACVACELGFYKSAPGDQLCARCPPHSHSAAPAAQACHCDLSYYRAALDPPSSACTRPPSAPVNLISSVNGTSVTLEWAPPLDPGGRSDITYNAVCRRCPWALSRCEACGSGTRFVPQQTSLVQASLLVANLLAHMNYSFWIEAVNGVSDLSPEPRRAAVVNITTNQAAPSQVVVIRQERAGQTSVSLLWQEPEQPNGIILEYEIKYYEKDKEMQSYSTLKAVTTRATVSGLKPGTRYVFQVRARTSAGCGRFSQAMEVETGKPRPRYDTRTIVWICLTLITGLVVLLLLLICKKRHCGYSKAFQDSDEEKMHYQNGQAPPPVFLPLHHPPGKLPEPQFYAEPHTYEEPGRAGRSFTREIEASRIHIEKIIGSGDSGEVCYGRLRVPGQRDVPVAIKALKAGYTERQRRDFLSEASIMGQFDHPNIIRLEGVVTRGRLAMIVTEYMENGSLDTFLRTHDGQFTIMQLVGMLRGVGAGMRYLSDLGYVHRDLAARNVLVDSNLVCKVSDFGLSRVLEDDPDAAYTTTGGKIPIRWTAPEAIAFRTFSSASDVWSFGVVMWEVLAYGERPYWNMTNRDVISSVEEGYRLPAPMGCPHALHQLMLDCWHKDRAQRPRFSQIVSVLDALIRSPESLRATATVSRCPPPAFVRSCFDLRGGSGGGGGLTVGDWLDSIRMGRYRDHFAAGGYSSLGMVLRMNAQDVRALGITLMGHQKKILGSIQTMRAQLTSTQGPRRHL

[7] = target: Histone-lysine N-methyltransferase KMT5C (Homo sapiens) (UniProt Q86Y97); experiment: Selectivity interaction (Transferase panel (protein, RNA, and DNA methyltransferases. and EP300 (acetyltransferase))) EUB0000270b SUV420H2
[8] = target: T3, Serine/threonine-protein kinase greatwall (Homo sapiens) (UniProt Q96GX5); experiment: Selectivity interaction (ActivX KiNativ screen (kinase selectivity in THP-1 cell lysates)) EUB0000639a MASTL; type: subcellular; details: lysate, at 1 µM
T3 sequence (whole entry): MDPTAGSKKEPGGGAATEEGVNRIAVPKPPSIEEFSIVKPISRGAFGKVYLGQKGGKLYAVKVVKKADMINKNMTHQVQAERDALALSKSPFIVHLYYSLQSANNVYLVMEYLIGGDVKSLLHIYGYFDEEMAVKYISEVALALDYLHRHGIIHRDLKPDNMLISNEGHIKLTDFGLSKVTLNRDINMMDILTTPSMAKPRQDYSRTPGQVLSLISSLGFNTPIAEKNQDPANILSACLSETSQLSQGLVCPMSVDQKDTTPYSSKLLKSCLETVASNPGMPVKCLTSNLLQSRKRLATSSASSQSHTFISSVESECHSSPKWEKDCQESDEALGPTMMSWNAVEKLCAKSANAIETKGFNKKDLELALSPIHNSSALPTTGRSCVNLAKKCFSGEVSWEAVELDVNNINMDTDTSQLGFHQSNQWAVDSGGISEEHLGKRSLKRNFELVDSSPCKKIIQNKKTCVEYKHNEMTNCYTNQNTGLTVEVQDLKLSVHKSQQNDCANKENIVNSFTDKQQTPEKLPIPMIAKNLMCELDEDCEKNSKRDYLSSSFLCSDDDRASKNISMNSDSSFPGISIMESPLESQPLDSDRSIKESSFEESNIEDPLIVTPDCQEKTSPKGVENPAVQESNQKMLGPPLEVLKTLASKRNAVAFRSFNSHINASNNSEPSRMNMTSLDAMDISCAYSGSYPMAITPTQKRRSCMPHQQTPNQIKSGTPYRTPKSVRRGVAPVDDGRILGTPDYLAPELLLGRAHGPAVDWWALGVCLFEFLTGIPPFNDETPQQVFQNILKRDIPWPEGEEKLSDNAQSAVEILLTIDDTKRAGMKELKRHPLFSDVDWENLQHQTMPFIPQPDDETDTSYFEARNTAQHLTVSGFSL

[9] = target: Calcium/calmodulin-dependent protein kinase type 1G (Homo sapiens) (UniProt Q96NX5); experiment: Selectivity interaction (KinomeScan (DiscoverX)) EUB0001619a CAMK1G; details: at 1 µM
Calcium/calmodulin-dependent protein kinase type 1G (Homo sapiens), sequence (Q96NX5 whole entry): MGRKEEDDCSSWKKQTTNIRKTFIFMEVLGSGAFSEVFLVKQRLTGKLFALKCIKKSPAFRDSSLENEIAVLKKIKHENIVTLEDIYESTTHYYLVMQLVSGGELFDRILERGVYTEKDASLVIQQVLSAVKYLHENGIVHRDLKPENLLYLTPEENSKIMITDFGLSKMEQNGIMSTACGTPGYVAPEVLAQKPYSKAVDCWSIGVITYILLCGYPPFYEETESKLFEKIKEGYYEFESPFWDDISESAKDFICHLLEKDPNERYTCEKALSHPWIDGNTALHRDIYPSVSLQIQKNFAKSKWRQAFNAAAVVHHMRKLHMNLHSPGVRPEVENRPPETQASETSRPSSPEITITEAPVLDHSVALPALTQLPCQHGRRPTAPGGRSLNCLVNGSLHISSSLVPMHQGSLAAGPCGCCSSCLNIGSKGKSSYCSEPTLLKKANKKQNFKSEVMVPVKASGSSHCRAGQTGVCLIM

Histone-lysine N-methyltransferase KMT5C (Homo sapiens), sequence (Q86Y97 whole entry, looked up): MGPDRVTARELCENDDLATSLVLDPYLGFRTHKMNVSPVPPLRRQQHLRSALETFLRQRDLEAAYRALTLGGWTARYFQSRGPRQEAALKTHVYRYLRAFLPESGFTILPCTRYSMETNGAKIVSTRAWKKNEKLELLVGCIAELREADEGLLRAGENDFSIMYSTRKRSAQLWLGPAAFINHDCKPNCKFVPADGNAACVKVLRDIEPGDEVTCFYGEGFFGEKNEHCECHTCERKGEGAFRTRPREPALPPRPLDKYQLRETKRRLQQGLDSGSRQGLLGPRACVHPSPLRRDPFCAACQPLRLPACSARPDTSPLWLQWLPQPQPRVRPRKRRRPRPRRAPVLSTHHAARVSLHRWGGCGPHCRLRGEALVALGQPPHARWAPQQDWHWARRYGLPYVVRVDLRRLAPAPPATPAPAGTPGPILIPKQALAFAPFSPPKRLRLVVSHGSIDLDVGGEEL
Glycogen synthase kinase-3 alpha, sequence (P49840 2-483 limits assumed): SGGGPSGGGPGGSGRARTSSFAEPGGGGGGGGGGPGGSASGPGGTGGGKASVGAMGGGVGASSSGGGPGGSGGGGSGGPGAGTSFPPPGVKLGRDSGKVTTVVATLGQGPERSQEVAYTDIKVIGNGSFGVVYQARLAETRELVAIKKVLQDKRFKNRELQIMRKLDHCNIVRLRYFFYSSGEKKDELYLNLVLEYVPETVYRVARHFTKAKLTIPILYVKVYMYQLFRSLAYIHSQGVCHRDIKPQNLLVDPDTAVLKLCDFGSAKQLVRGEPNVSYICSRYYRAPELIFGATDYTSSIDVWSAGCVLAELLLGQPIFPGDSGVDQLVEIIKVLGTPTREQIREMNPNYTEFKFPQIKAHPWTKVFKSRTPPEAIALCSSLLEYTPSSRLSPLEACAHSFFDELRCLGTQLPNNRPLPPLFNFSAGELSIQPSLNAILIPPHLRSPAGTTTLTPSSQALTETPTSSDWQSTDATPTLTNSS
Tyrosine-protein kinase Lyn, sequence (P07948 2-512 limits assumed): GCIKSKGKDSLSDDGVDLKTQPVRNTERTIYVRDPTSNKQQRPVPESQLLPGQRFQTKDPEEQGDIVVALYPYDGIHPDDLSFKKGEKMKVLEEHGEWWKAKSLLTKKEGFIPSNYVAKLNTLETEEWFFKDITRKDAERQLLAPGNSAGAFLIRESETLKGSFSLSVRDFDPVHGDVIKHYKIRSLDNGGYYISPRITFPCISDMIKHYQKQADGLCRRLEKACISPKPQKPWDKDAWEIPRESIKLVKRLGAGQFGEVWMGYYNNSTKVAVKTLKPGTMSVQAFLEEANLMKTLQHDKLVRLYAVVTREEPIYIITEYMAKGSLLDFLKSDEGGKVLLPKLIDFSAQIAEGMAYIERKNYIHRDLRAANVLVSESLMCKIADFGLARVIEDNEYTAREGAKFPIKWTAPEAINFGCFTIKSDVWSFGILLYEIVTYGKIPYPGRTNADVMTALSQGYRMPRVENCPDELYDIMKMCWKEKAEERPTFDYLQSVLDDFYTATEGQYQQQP
Epidermal growth factor receptor (Homo sapiens), P00533 [UNDEFINED MUTATION], sequence (P00533 whole entry, looked up, change not shown): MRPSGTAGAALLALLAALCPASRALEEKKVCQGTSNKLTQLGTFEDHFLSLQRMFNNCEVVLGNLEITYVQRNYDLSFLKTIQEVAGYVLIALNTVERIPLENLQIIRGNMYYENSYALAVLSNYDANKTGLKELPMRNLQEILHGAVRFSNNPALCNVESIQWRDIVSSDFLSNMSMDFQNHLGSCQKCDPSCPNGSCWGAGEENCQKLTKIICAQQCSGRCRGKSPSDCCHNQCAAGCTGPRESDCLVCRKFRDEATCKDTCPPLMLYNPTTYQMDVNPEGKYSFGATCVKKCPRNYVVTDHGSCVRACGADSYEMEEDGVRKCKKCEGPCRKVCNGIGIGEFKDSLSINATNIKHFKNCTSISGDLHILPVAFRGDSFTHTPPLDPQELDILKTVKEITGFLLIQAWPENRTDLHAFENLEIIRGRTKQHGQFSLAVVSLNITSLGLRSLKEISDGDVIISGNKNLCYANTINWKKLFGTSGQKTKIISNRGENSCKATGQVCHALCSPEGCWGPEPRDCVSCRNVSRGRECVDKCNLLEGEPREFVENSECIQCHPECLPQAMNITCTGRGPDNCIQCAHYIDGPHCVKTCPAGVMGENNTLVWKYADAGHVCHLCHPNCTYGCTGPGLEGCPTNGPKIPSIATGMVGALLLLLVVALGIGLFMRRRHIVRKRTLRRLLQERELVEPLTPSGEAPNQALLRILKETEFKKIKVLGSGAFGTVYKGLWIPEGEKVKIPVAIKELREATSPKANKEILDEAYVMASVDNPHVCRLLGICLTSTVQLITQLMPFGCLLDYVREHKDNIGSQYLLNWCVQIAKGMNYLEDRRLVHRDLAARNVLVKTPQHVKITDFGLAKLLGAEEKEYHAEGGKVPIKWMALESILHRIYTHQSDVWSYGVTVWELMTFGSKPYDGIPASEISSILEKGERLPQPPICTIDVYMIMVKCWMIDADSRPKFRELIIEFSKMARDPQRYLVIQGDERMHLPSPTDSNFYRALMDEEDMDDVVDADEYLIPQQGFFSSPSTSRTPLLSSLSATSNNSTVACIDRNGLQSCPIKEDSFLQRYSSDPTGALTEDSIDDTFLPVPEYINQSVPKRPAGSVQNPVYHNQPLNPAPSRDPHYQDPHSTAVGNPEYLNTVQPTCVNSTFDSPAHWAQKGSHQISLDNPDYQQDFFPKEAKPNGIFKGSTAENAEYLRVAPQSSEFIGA
Serine/threonine-protein kinase Nek7 (Homo sapiens), sequence (Q8TDX7 whole entry, looked up): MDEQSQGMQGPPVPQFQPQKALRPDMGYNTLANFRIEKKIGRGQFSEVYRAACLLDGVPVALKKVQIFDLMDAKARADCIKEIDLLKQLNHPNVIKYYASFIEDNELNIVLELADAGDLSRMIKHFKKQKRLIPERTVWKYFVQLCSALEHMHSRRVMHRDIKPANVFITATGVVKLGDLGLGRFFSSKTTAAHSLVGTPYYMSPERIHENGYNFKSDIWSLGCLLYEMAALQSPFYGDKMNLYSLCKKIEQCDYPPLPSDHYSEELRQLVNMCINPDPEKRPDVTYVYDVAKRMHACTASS

SMILES: CN(C)CCOc1ccc(-c2nc(-c3ccncc3)c(-c3ccc4c(c3)CC/C4=N\O)[nH]2)cc1
% of control [2]: 100%

SMILES: Nc1cnc(N2CCc3cc(S(=O)(=O)Nc4c(F)cc(Cl)cc4F)cc(N4CCCC4=O)c32)nc1 [TP-020n]
% of control [5]: 100%

SMILES: O=C(NOC[C@H](O)CO)c1ccc(F)c(F)c1Nc1ccc(I)cc1F
% of control [6]: 94%

SMILES: Cc1cc(CN)cc(C)c1-c1ncn(C)c1-c1cncn1C
% activity ([7]; at 1 µM): > 90%
% activity ([7]; at 10 µM): > 80%

SMILES: CC[C@@H]1[C@H](F)C(=O)N[C@@H]1COc1nccc2cc(C(N)=O)c(OC)cc12 [ZIMLOVISERTIB]
% of inhibition [8]: 35.1%

SMILES: N#Cc1cccc(-c2c[nH]c3ncnc(N4CCOCC4)c23)c1
% of control [9]: 100%

Next, values leading:

% of inhibition [1]: 8%
SMILES: Cc1ccc(-c2ccc3c(ccc4sc5c(c43)NC[C@@H](C)NC5=O)n2)cn1

% of control ([3]; at 1 µM): 90%
% of control ([3]; at 5 µM): 61%
SMILES: C=CC(=O)Nc1cccc(C(=O)Nc2ccc(Nc3cc(-c4[nH]c(SC)nc4C)ccn3)cc2)c1

pXC50 [4]: 5.6 M
SMILES: CCn1c(-c2nc3cc(C(=O)N4CCCC(N)C4)ccc3n2C)cc2ccccc21 (stereo unspecified)

Source: ChEMBL document CHEMBL5465560, “Selectivity Literature for EUbOPEN Chemogenomic Library” (2024)
